Experimental data from patent publication US20130158070A1, “CONJUGATES OF POLYUNSATURATED FATTY ACIDS AND AMINE-CONTAINING COMPOUNDS AND USES THEREOF” (priority 2010, published 2013).

Legend:
[1] = tested on: oxazolone-induced allergic dermatitis; experiment: Murine oxazolone-induced allergic dermatitis; assay type: in vivo, mice
Source text: An allergic form of contact dermatitis can be induced in mice by repeated epicutaneous application of the chemical sensitizer oxazolone. This leads to local augmented thickness and weight increase of the skin area where the rechallenge was applied; from the histological point of view, oxazolone-induced dermatitis is characterized by severe mononuclear cell infiltration of the dermis with in situ production of the type 1 proinflammatory cytokines TNF-alpha, IL-1alpha and IFN-gamma. These well-defined mechanistic pathways of inflammatory skin damage make oxazolone-dermatitis a useful in vivo tool for pathogenic studies and a pharmacodynamic parameter to screen drugs of potential utility in counteracting type 1 cytokine dependent cutaneous immunoinflammatory responses such as those found in some forms of bullous disorders, cutaneous vasculitis and psoriasis.
The efficacy of MWL001 in the treatment of Murine oxazolone-induced allergic dermatitis was evaluated. MWL001 and DEX were administered one hour after the second challenge with oxazolone.
The mice were sensitized on day 0 by a single application of 10 ∞l of 2% oxazolone (Sigma Chimica, Milan, Italy) in ethanol to the inner and outer surface of the left ear. The disease was elicited by local rechallenge on day 7 with 15% oxazolone. The right ear was treated with the vehicle of oxazolone (acetone). Eighteen hours after […] the mice are sacrificed under ether anesthesia and both the right and left ears were excised.
Inflammation was assessed as the percentage increase in ear thickness and/or ear weight in the treated left ear vs. the vehicle-treated right ear. Ear thickness was measured with a digital calliper. The extent of the inflammation was quantified as follows: ear swelling (%)=100×(a−b)/b, where a is thickness/weight of the left (treated) ear and b is the thickness/weight of the right (untreated) ear.
Ear tissue samples were fixed with 4% formaldehyde in phosphate-buffered saline (PBS) and embedded in paraffin. Thereafter, 6-μm sections were deparaffinized with xylene, stained with hematoxylin-eosin and observed with a Zeiss microscope (Jena, Germany).

[2] = tested on: TNBS-induced ulcerative colitis; experiment: TNBS-induced colitis (ulcerative colitis) in rats; assay type: in vivo
Experimental: Exemplary conjugates were tested for the effect on inflammatory bowel disease IBD (ulcerative colitis) in rats.
Briefly, ulcerative colitis was induced by tri-nitrobenzene sulfunic acid (TNBS) as described in the literature. Rats were divided into 4 groups, (−) sham (healthy), (+) control ulcerative colitis (UC, not treated), UC treated with the tested conjugate (25 mg/kg), and UC treated with 5-amino salicylic acid (5-ASA 25 mg/kg). The tested conjugate and 5-ASA were administered rectally during all the period of the experiment. At the end of the experiment animals were sacrificed and the colon was isolated to test the severity of the inflammation. The severity of the inflammation was tested by measurement of the myeloperoxidase activity (MPO activity) in the inflamed area of the colon.

[3] = Pharmacokinetic profile after oral administration in rats; assay type: in vivo, Sprague-Dawley male rats
Experimental: Evaluation of the pharmacokinetic profile of MWL001 after oral administration in rats was performed.
Sprague-Dawley male rats weighing 300-325 g were used to evaluate the oral absorption of MWL001 and its blood levels. They were deprived of food overnight and given free access to water. A dose of 10 mg/kg MWL-001 (3.3 mg/rat) was dispersed in 2.5 mL DDW and delivered to the rats by oral gavage. Blood samples (300 μl) from the rats' tails were collected in heparin containing tubes at 0, 0.5, 1, 1.5, 2, 3, 4, 6, 8, 12 and 24 h. The samples were immediately centrifuged at 10,000 rpm for 5 min, after which 150 μl of plasma samples were transferred to new tubes and stored at −80° C. until analyzed by LCMS/MS.
The assay was based on protein precipitation of MWL001 and DHA (as an MWL001 metabolite) using methanol (100 μL plasma sample mixed with […] of methanol. The separation was carried out under reverse-phase conditions employing a Phenomenex Synergi, column (MAX-RP, 50×2 mm, 2.5 μm, 100A (in gradient mode. The mobile phase A was methanol/water/formic acid 20/80/0.2 and the mobile phase B was methanol/water/formic acid 80/20/0.2. The flow rate was maintained at 0.3 mL/min, and the column was maintained at 40° C. HPLC-MS/MS analysis was performed with a Shimadzu LC-20 HPLC system coupled with a Sciex Qtrap 3200 Turbo Ion Spray detector in positive ionization mode. The tested samples were quantified against a calibration curve in the range of 5-50 ng/mL.

[4] = Acute intraperitoneal (IP) toxicity in the mouse; conditions: both sexes, in vivo, single IP injection, male and female ICR mice, read-out: MTD (Maximum Tolerated Dose)
Experimental: The objective of this study was to determine the MTD (Maximum Tolerated Dose) and/or assess the potential toxic effects in terms of the MFD (Maximum Feasible Dose) following an acute intraperitoneal (IP) injection of the Test Item MWL002 (Batch No.: 201109) to male and female ICR mice, in consideration of its intended use as an anti-inflammatory and pain relief agent.
MWL002 (Batch No.: 201109) was injected at two dose levels of 1000 (corresponding to the MFD) and 200 mg/kg to two groups consisting of three male and three female ICR mice per group, by a single intraperitoneal (IP) injection. An additional equally-sized group was injected with vehicle and served as the Control group. Dosing was sequential using three male and three female mice per step at 14 days interval. The Test Item or Vehicle Control Dosing Solutions were freshly prepared by the Testing Facility on each day of dosing, by diluting the Test Item or Vehicle Control with Physiological Saline according to the appropriate dose level and a constant volume dosage of 4 ml/kg.

[5] = eighteen hours after sensitization, given one hour after second oxazolone challenge
[6] = male, Sprague-Dawley, rat, 10 mg/kg oral gavage, plasma

Compound: CCC=CCC=CCC=CCC=CCC=CCC=CCCC(=O)N1CC(O)CC1C(=O)O (stereo not drawn) [MWL001]
- ear thickness [1, 5]: decreased ear thickness
- ear weight [1, 5]: decreased ear weight
- histology: ear thickness and inflammatory cells in epidermis and dermis ([1]; hematoxylin and eosin stained sections): markedly reduced
- body weight ([2]; UC rats, throughout assay period): no decrease
- MPO activity (severity index) ([2]; rectal, 50 mg/kg as printed, compared to 5-ASA, inflamed colon): significant decrease
- colon morphology and inflammation signs (images) ([2]; ulcerated colon segment, compared to non-treated or 5-ASA treated): normal clear anatomic morphology and a significant decrease in inflammation signs
- Cl (Clearence) ([3]; 10 mg/kg oral gavage, plasma): 25.212 ± 3.152 mL/min/kg
- V (Volume of distribution) ([3]; 10 mg/kg oral gavage, plasma): 11283.0 ± 3583.1
- oral absorption / bioavailability ([3]; 10 mg/kg oral, FIG. 9): high bioavailability
- AUC [3, 6]: 6690 ± 838 ng·h/mL
- Cmax [3, 6]: 1040 ± 77.5 ng/mL
- Tmax [3, 6]: 2.3 ± 0.5 h
- half-life ([3]; male, Sprague-Dawley, rat, 10 mg/kg oral gavage, plasma, read-out: T½ (converted)): 4.9 ± 0.6 h
- metabolism (major metabolite) ([3]; oral, plasma, FIG. 9): undergoes decomposition to DHA

Compound: CC/C=C\C/C=C\C/C=C\C/C=C\C/C=C\C/C=C\CCC(=O)NCCS(=O)(=O)O [MWL002, N-docosa-4,7,10,13,16,19-hexaenoyl-taurine]
- MTD [4]: 200 to 1000 mg/kg
